Consider seven compounds from patent US4169899A, “Penicillamine compounds” (Yoshitomi Pharmaceutical Industries, Ltd., priority 1977, dated 1979).

Where two headings read alike, the source gives them in different places. Bounds are passed on as bounds.

The subject of one assay is peritoneal macrophages. Description: Release (secretion) of lysosomal enzymes from macrophages during phagocytosis. Particulars: Rattus norvegicus, Peritoneal macrophage, 0.5 h, serum-treated zymosan, 37° C., 30 minutes. In kind it is cell-based. The protocol: (§1) (2) Assay of release of lysosomal enzymes from polymorphonuclear (PMN) leukocytes or macrophages during phagocytosis
Preparation of rat peritoneal macrophages was carried out according to the method described by D. Gemsa et al in "Journal of Clinical Investigation",vol. 52, 812 (1973).
(§2) Lysosomal enzymes were released from PMN leukocytes exposed to homologous serum-treated zymosan particles (0.5-3 μ in diameter, Sigma) according to the method described by M. Nakanishi et al in "Yakugaku Zasshi (Journal of the Pharmaceutical Society of Japan)", vol. 95, 672 (1975).
(§3) The effects of test compounds on the enzyme release were studied by determining the release of lysosomal marker enzymes such as aryl sulfatase.
(§4) The test compounds were dissolved in ethanol. The test solution (10 μl) or solvent (control, 10 μl) was added to a 10-ml conical flask containing 2.0 ml of the PMN leukocyte or macrophage suspension. The mixture was kept at 25° C. for 10 minutes. Immediately after the addition of 50 μl of serum-treated zymosan particles (10 mg/ml) to the above mixture, 1.0-ml aliquots were removed to determine the initial activity of free enzymes in the supernatant. The residual mixtures were incubated at 37° C. for 30 minutes with shaking at an agitation cycle of 75/min, and centrifuged at 350 g for 10 minutes at 4° C. The supernatant thus obtained was used for the measurement of the marker enzymes released from PMN leukocytes or macrophages during phagocytosis. The total activity of these enzymes was assayed using the 27,000 g supernatant obtained by centrifuging the PMN leukocytes or macrophages incubated at 37° C. for 30 minutes in 0.2% (v/v) Triton X-100 - Hanks' solution.

For another assay, the system named is Leukocyte migration. Description: Leukocyte migration in the rat (CMC pouch). In kind it is in vivo, rat (male Donryu). As to conditions: compound administered into the CMC pouch; for Leukocyte Migration ED50, 5 hr: 5 hr after CMC injection; for Leukocyte Migration ED50, 7 hr: 7 hr after CMC injection. The protocol:
(1) Leukocyte migration in the rat
The test was performed according to the method described by H. Ishikawa et al in "Yakugaku Zasshi (Journal of the Pharmaceutical Society of Japan)", vol.
Male Donryu rats weighing about 150 g were divided into groups of 4 to 5 animals each. Five ml of 2% suspension of carboxymethylcellulose (CMC) in physiological saline, which was treated by autoclaving at 120° C. for 15 minutes, was injected subcutaneously in the supra-scapular area. Five and 7 hours later, 0.1 ml of fluid in the CMC pouch was collected and mixed with 3 ml of 0.02% brilliant cresyl blue solution in phosphate buffer (0.002M, pH 7.0). The suspension was put in a Burker chamber and the emigrating leukocytes were counted under a microscope (magnification 400x). The percent inhibition was calculated as compared with the count in the control group. Compounds tested were administered into the CMC pouch immediately after the injection of the CMC suspension.

The test system of assay [1] is polymorphonuclear (PMN) leukocytes. Description: Release (secretion) of lysosomal enzymes from PMN leukocytes during phagocytosis. The format is cell-based. As to conditions: Rattus norvegicus, 0.5 h, serum-treated zymosan, 37° C., 30 minutes. The protocol: as §1
Preparation of rat PMN leukocytes was carried out according to the method described by M. Nakanishi et al in "Yakugaku Zasshi (Journal of the Pharmaceutical Society of Japan)", vol. 95, 1027 (1975).
as §2, §3, §4

The test system of assay [2] is Adjuvant induced arthritis. Description: Adjuvant induced arthritis in the rat (prophylactic effect). The format is in vivo, rat (male Wistar). The protocol:
(3) Adjuvant induced arthritis in the rat
The test was performed according to the method described by B. B. Newbould in "British Journal of Pharmacology", vol. 21, 127 (1963).
Male Wistar rats weighing 180 to 210 g were divided into groups of 8 animals each. The arthritic syndrome was induced by an intradermal injection into the right hind paw of 0.1 ml of a suspension of dead tubercle bacilli (6 mg/ml) in liquid paraffin. Swellings in the hind feet were measured with the fluid displacement method at 4, 10, 15, 18, 21 and 28 days after the adjuvant inoculation. Compounds tested were orally administered daily from the adjuvant inoculation day (day 1) to day 20.

[3] abbreviates: read-out: Secretion of Lysosomal Enzyme IC20, Macrophage, Macrophage.
[4] abbreviates: Leukocyte, read-out: Secretion of Lysosomal Enzyme IC20, PMN leukocyte, PMN leukocyte.
Where [5] appears, read: po, read-out: Prophylactic Effect on Adjuvant Arthritis MED (minimum effective dose).
Where [6] appears, read: Macrophage, read-out: Secretion of Lysosomal Enzyme IC20, Macrophage.
Setting [7] is: PMN leukocyte, read-out: Secretion of Lysosomal Enzyme IC20, PMN leukocyte.
Setting [8] is: oral, daily from day 1 to day 20, read-out: Prophylactic Effect on Adjuvant Arthritis MED (minimum effective dose).

As for `CC(=O)Oc1ccccc1C(=O)O` [AcetylsalicylicAcid, Acetylsalicylic Acid, reference compound], the IC20 – broadly, the point of the concentration-response curve where the effect stands at 20% – came to 100000 nM in the assay on peritoneal macrophages (setting [3]) and 100 nM in assay [1] (setting [4]). For the same compound, in the assay on Leukocyte migration, the “Leukocyte Migration ED50, 5 hr” value was 20 mg/rat. The “Leukocyte Migration ED50, 7 hr” value with Leukocyte migration is listed as greater than 25 mg/rat. Also, the minimal effective dose in assay [2] (setting [5]) is 100 mg/kg.

In the case of `CC(C)(S)[C@@H](N)C(=O)O` [D-Penicillamine, D-penicillamine, reference compound], in the assay on peritoneal macrophages (setting [3]), the IC20 worked out at 1000 nM. Also, in the assay with Leukocyte migration, the “Leukocyte Migration ED50, 5 hr” value was greater than 40 mg/rat and the “Leukocyte Migration ED50, 7 hr” value is on record as greater than 40 mg/rat. In addition, the IC20 in assay [1] (setting [4]) amounted to 10000 nM. Also, in assay [2] (setting [5]), the minimal effective dose is greater than 200 mg/kg.

As to `CC1(C)SC(=S)N(Cc2ccccc2)C(=O)C1NC(=O)c1ccc(Cl)cc1` (stereo not shown) [Test Compound A, 3-benzyl-5-(p-chlorobenzamido)-6,6-dimethyl-2-thioxo-tetrahydro-2H-1,3-thiazin-4-one], in the assay on peritoneal macrophages (setting [6]), the IC20 is greater than 10000 nM. Also, in the assay with Leukocyte migration, the “Leukocyte Migration ED50, 5 hr” value is reported as 15 mg/rat and the “Leukocyte Migration ED50, 7 hr” value was 15 mg/rat. In assay [1] (setting [7]), the IC20 came out at 200 nM. Also, in assay [2] (setting [8]), the minimal effective dose is 50 mg/kg.

For `CN(C)CCN1C(=O)C(NC(=O)c2ccc(Cl)cc2)C(C)(C)SC1=S` (stereo not shown) [Test Compound B, 5-(p-Chlorobenzamido)-3-(2-dimethylaminoethyl)-6,6-dimethyl-2-thioxotetrahydro-2H-1,3-thiazin-4-one], the IC20 in the assay with peritoneal macrophages (setting [6]) came out at 200 nM. In addition, in the assay with Leukocyte migration, the “Leukocyte Migration ED50, 5 hr” value is 2 mg/rat and the “Leukocyte Migration ED50, 7 hr” value is reported as 2 mg/rat. Also, the concentration for an effect of 20% (IC20) in assay [1] (setting [7]) stood at 500 nM. Further, in assay [2] (setting [8]), the minimal effective dose turned out to be 25 mg/kg.

Consider `CN(C)CCN1C(=O)C(NC(=O)c2ccc(Cl)cc2)C(C)(C)SC1=S.Cc1ccc(S(=O)(=O)O)cc1` (stereo not shown) [Test Compound C, 5-(p-Chlorobenzamido)-3-(2-dimethylaminoethyl)-6,6-dimethyl-2-thioxotetrahydro-2H-1,3-thiazin-4-one p-toluenesulfonate], for which, in the assay on peritoneal macrophages (setting [3]), the IC20 was determined as 100 nM. Besides, in the assay on Leukocyte migration, the “Leukocyte Migration ED50, 5 hr” value worked out at 3.5 mg/rat and the “Leukocyte Migration ED50, 7 hr” value came out at 5 mg/rat. In addition, the IC20 in assay [1] (setting [4]) came to 1000 nM.

Consider `CN(C)CCN1C(=O)C(NC(=O)c2ccc(NS(C)(=O)=O)cc2)C(C)(C)SC1=S.Cc1ccc(S(=O)(=O)O)cc1` (stereo not shown) [Test Compound D, 3-(2-dimethylaminoethyl)-5-(p-methanesulfonamidobenzamido)-6,6-dimethyl-2-thioxo-tetrahydro-2H-1,3-thiazin-4-one p-toluenesulfonate], for which, in the assay with peritoneal macrophages (setting [3]), the IC20 stood at 500 nM. In addition, in the assay with Leukocyte migration, the “Leukocyte Migration ED50, 5 hr” value stood at 2 mg/rat and the “Leukocyte Migration ED50, 7 hr” value is 5 mg/rat. Besides, in assay [1] (setting [4]), the 20% effect concentration (IC20) was found to be 300 nM. The minimal effective dose in assay [2] (setting [5]) was determined as 10 mg/kg.

For the compound `CN(C)CCNC(=S)SC(C)(C)C(NC(=O)c1ccc(Cl)cc1)C(=O)O` (stereo not drawn) [Test Compound E, n-(p-Chlorobenzoyl)-S-(2-dimethylaminoethylthiocarbamoyl)-penicillamine], in the assay with peritoneal macrophages (setting [6]), the IC20 was determined as 100 nM. For the same compound, in the assay on Leukocyte migration, the “Leukocyte Migration ED50, 5 hr” value was determined as 2.7 mg/rat and the “Leukocyte Migration ED50, 7 hr” value amounted to 3.6 mg/rat. In addition, the IC20 in assay [1] (setting [7]) is 1000 nM. In addition, the minimal effective dose in assay [2] (setting [8]) was 10 mg/kg.
